# “And” between values parts separate entries of the source, which are not always exact repeats. Equal values may be shown once.
# Target: EGFR (UniProt P00533)
# Sequence (P00533 whole entry, looked up): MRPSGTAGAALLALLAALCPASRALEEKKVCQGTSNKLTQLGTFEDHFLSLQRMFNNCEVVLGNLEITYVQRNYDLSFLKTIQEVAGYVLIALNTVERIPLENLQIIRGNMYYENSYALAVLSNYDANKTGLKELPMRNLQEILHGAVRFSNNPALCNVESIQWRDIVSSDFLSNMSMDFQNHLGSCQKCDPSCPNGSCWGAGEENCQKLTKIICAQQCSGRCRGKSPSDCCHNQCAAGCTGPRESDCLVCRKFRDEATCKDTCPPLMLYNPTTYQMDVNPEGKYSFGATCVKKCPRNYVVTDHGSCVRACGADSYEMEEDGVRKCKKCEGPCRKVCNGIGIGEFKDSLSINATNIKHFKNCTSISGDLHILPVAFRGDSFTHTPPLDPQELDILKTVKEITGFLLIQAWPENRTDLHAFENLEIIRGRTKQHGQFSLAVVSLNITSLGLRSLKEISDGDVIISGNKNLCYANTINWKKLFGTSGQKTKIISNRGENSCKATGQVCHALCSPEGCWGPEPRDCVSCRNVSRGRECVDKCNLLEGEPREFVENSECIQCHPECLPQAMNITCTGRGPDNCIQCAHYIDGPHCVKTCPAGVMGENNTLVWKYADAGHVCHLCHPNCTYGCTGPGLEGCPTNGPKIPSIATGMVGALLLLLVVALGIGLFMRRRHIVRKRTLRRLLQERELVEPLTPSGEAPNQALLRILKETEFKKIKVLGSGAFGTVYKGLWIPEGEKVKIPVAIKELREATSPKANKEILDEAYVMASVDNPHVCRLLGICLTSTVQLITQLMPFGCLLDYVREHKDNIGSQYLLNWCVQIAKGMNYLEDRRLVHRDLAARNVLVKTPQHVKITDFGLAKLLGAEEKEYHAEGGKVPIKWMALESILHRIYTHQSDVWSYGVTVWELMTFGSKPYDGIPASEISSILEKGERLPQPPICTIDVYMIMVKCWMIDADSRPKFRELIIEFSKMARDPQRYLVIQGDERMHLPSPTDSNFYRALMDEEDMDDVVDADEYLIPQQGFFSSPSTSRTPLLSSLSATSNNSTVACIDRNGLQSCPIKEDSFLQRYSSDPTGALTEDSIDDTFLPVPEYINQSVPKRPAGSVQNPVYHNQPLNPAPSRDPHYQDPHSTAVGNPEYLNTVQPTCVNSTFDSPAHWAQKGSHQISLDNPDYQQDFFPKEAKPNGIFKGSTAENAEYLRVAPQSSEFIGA
row,Structure (SMILES),IC50
1,COc1cc(Nc2ncnc(-c3cccnc3NCc3cccc4ccccc34)n2)cc(OC)c1OC,> 4.5 µg/mL
2,CNc1ncnc(Nc2cc(OC)c(OC)c(OC)c2)n1,> 4.5 µg/mL
3,c1ccc(CCNc2ncnc(Nc3ccc4c(cnn4Cc4ccccc4)c3)n2)cc1,> 4.5 µg/mL
4,COc1cc(Nc2ncnc(Nc3cccc(F)c3)n2)cc(OC)c1OC,< 0.4 µg/mL
5,CCc1ccccc1Nc1ncnc(-n2cccc2)n1,> 4.5 µg/mL
6,COc1ccc(Nc2ncccc2-c2ncnc(Nc3cc(OC)c(OC)c(OC)c3)n2)c(C)c1,> 4.5 µg/mL
7,COCCOc1ccc(Nc2ncnc(-c3ccccc3)n2)cc1,> 4.5 µg/mL
8,CN(c1cccc(Cl)c1)c1ncnc(Nc2ncccn2)n1,< 0.4 µg/mL
9,COc1ccc(CNc2ncccc2-c2ncnc(Nc3cc(OC)c(OC)c(OC)c3)n2)cc1,> 4.5 µg/mL
10,COc1cc(Nc2ncnc(-c3cccnc3NCc3ccccc3OC(F)(F)F)n2)cc(OC)c1OC,> 4.5 µg/mL
11,COc1cc(Nc2ncnc(Nc3ccc(NCc4ccccc4)cc3)n2)cc(OC)c1OC,> 4.5 µg/mL
12,Fc1cccc(Nc2ncnc(-c3cccs3)n2)c1,> 4.5 µg/mL
13,COc1cc(Nc2ncnc(Nc3cccc(OCc4ccccc4)c3)n2)cc(OC)c1OC,> 4.5 µg/mL
14,Nc1nc2ccccc2n1-c1ncnc(Nc2cccc(Cl)c2)n1,0.4 to 2.4 µg/mL
15,COc1ccc(Nc2ncnc(Nc3cc(OC)c(OC)c(OC)c3)n2)cc1O,< 0.4 µg/mL
16,COc1cc(Nc2ncnc(-n3c(Nc4ccccc4)nc4ccccc43)n2)cc(OC)c1OC,> 4.5 µg/mL
17,c1coc(-c2cc(Nc3ncnc(Nc4ccc(N5CCOCC5)cc4)n3)[nH]n2)c1,2.4 to 3.5 µg/mL
18,COc1cc(Nc2ncnc(-c3ccc(NCCCO)nc3)n2)cc(OC)c1OC,> 4.5 µg/mL
19,OCCCNc1cc(-c2ncnc(Nc3cccc(OC(F)(F)C(F)F)c3)n2)ccn1,> 4.5 µg/mL
20,COc1cc(Nc2ncnc(Nc3ccc4nn(C)cc4c3)n2)cc(OC)c1OC,0.4 to 2.4 µg/mL
21,Fc1ccc(Nc2ncnc(Cl)n2)cc1Cl,> 4.5 µg/mL
22,COC(=O)Cc1cccc(Nc2ncnc(-n3c(NCc4ccccn4)nc4ccccc43)n2)c1,> 4.5 µg/mL
23,COc1cc(Nc2ncnc(-n3ccc4cc(F)ccc43)n2)cc(OC)c1OC,> 4.5 µg/mL
24,COc1cc(Nc2ncnc(Nc3ccc(F)cc3)n2)cc(OC)c1OC,0.4 to 2.4 µg/mL
25,COc1ccc(Nc2ncnc(NC[C@@H]3CCCO3)n2)cc1OC,> 4.5 µg/mL
26,COc1cc(Nc2ncnc(Nc3cccc(Br)c3)n2)cc(OC)c1OC,< 0.4 µg/mL
27,c1ccc(Cn2ncc3cc(Nc4ncnc(NCc5ccco5)n4)ccc32)cc1,0.4 to 2.4 µg/mL

row,Structure (SMILES),IC50
1,COC(=O)c1ccc(-c2cc(Nc3ncnc(Nc4cccc(CC(=O)O)c4)n3)[nH]n2)cc1,0.4 to 2.4 µg/mL
2,COc1cc(Nc2ncnc(-c3cccnc3CCN)n2)cc(OC)c1OC,> 4.5 µg/mL
3,COc1cc(Nc2ncnc(Nc3ccc(-c4ccccc4)cc3)n2)cc(OC)c1OC,3.5 to 4.5 µg/mL
4,COc1cc(Nc2ncnc(Nc3ccc(O)nc3)n2)cc(OC)c1OC,0.4 to 2.4 µg/mL
5,COc1ccc(Oc2ncnc(Nc3cc(OC)c(OC)c(OC)c3)n2)cc1,2.4 to 3.5 µg/mL
6,COc1ccc(Nc2ncnc(N(C)c3ccc(F)cc3F)n2)cc1OC,< 0.4 µg/mL
7,Cc1ccc(Cl)cc1Nc1ncnc(Nc2cc(Cl)ccc2C)n1,< 0.4 µg/mL
8,CN(c1ccc(F)c(Cl)c1)c1ncnc(Nc2cccc(Br)c2)n1,> 4.5 µg/mL
9,CCOc1cccc(Nc2ncnc(Nc3ccc(OC)c(OC)c3)n2)c1,> 4.5 µg/mL
10,NC(=O)c1ccc(Nc2ncnc(-n3c(=O)[nH]c4ccccc43)n2)cc1,> 4.5 µg/mL
11,O=c1[nH]c2ccccc2n1-c1ncnc(Nc2ccncc2)n1,> 4.5 µg/mL
12,COc1ccc2c(c1)nc(NCc1ccccn1)n2-c1ncnc(Nc2cc(OC)c(OC)c(OC)c2)n1.COc1ccc2nc(NCc3ccccn3)n(-c3ncnc(Nc4cc(OC)c(OC)c(OC)c4)n3)c2c1,> 4.5 µg/mL
13,C=CCNc1ncccc1-c1ncnc(Nc2ccc(C(N)=O)cc2)n1,> 4.5 µg/mL
14,COc1cc(Nc2ncnc(-n3ccc4cc(OCc5ccccc5)ccc43)n2)cc(OC)c1OC,> 4.5 µg/mL
15,COc1cc(Nc2ncnc(-n3c(Nc4ccc5[nH]ccc5c4)nc4ccccc43)n2)cc(OC)c1OC,3.5 to 4.5 µg/mL
16,COCCOc1ccc(Nc2ncnc(Nc3ccc(C)c(O)c3)n2)cc1OCCOC,0.4 to 2.4 µg/mL
17,COc1cc(Nc2ncnc(-c3cccs3)n2)cc(OC)c1OC,> 4.5 µg/mL
18,COc1cc(Nc2ncnc(-n3c(NCc4ccc(C)cc4C)nc4ccccc43)n2)cc(OC)c1OC,> 4.5 µg/mL and 2.4 to 3.5 µg/mL
19,OCc1ccc(Nc2ncnc(-c3ccccc3)n2)cc1,> 4.5 µg/mL
20,CC(=O)Nc1ccc(Nc2ncnc(N3CCCc4cc(C)ccc43)n2)cc1,< 0.4 µg/mL
21,COc1cc(Nc2ncnc(-n3c(NCc4ccc(C(F)(F)F)cc4)nc4ccccc43)n2)cc(OC)c1OC,> 4.5 µg/mL
22,CC(C)(C)c1cc(Nc2ncnc(Nc3ccc(CO)cc3)n2)[nH]n1,0.4 to 2.4 µg/mL
23,COC(=O)Cc1cccc(Nc2ncnc(Nc3ccc(C)c(O)c3)n2)c1,0.4 to 2.4 µg/mL
24,COc1cc(Nc2nc3ccccc3n2-c2ncnc(Nc3cc(OC)c(OC)c(OC)c3)n2)cc(OC)c1,> 4.5 µg/mL
25,COc1ccc(Nc2ncnc(NCc3ncc(C(F)(F)F)cc3Cl)n2)cc1OC,2.4 to 3.5 µg/mL
26,NCCCNc1ncnc(-c2ccccc2)n1,> 4.5 µg/mL
